In US8067589B2, “Heterocyclic compounds useful in treating diseases and conditions” (Pfizer Inc, priority 2007, dated 2011) one finds IC50 data, which are given here for 35 compounds.

The assay deals with human recombinant H-PGDS (Homo sapiens, UniProt O60760). In words: Fluoresecence Intensity h-PGDSTBA Enzyme Assay. Conditions: IC50, 5.0 μM PGH2, 2.5 mM L-Glutathione, 10 min preincubation, 4-parameter fit, highest inhibitor concentration typically 1 μM.
Sequence of human recombinant H-PGDS (O60760 whole entry): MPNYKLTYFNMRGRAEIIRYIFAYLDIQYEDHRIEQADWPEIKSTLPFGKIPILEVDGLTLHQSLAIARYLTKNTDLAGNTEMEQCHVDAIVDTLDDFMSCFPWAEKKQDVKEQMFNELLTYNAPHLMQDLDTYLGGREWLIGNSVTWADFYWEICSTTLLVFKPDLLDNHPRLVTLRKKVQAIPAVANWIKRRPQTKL
One may read the IC50 as the concentration needed to halve the response being measured. As for `COc1ccccc1OCC(c1ccccc1)N1CCC(NC(=O)c2cnc(-c3cccc(F)c3)nc2)CC1` (centres unmarked) [Example 54, 2-(3-Fluorophenyl)-N-{1-[2-(2-methoxyphenoxy)-1-phenylethyl]piperidin-4-yl}pyrimidine-5-carboxamide], the IC50 came to 6.13 nM. To `O=C(NC1CCN(C(COc2ccc(F)c(F)c2F)c2ccccc2)CC1)c1cnc(-c2cccc(F)c2)nc1` (centres unmarked) [Example 55, 2-(3-Fluorophenyl)-N-{1-[1-phenyl-2-(2,3,4-trifluorophenoxy)ethyl]piperidin-4-yl}pyrimidine-5-carboxamide] belongs 45.4 nM; to `Cc1ccc(OCC(c2ccccc2)N2CCC(NC(=O)c3cnc(-c4cccc(F)c4)nc3)CC2)cc1C` (centres unmarked) [Example 56, N-{1-[2-(3,4-Dimethylphenoxy)-1-phenylethyl]piperidin-4-yl}-2-(3-fluorophenyl)pyrimidine-5-carboxamide], 14.2 nM; to `Cc1cc(F)ccc1OCC(c1ccccc1)N1CCC(NC(=O)c2cnc(-c3cccc(F)c3)nc2)CC1` (centres unmarked) [Example 57, N-{1-[2-(4-Fluoro-2-methylphenoxy)-1-phenylethyl]piperidin-4-yl}-2-(3-fluorophenyl)pyrimidine-5-carboxamide], 11.4 nM.

Regarding `COc1ccc(OCC(c2ccccc2)N2CCC(NC(=O)c3cnc(-c4cccc(F)c4)nc3)CC2)cc1` (centres unmarked) [Example 58, 2-(3-Fluorophenyl)-N-{1-[2-(4-methoxyphenoxy)-1-phenylethyl]piperidin-4-yl}pyrimidine-5-carboxamide], the half-maximal inhibitory concentration (IC50) was found to be 2.08 nM. Next, `Cc1ccc(F)c(OCC(c2ccccc2)N2CCC(NC(=O)c3cnc(-c4cccc(F)c4)nc3)CC2)c1` (centres unmarked) [Example 59, N-{1-[2-(2-Fluoro-5-methylphenoxy)-1-phenylethyl]piperidin-4-yl}-2-(3-fluorophenyl)pyrimidine-5-carboxamide]: 8.16 nM; `Cc1nc(N2CCC(NC(=O)c3cnc(-c4cccc(F)c4)nc3)CC2)[nH]c(=O)c1CCO` [Example 60, 2-(3-Fluorophenyl)-N-{1-[5-(2-hydroxyethyl)-4-methyl-6-oxo-1,6-dihydropyrimidin-2-yl]piperidin-4-yl}pyrimidine-5-carboxamide]: 1.02 nM. Next, `CCCCN1CCC(NC(=O)c2cnc(-c3cccc(F)c3)nc2)CC1` [Example 61, N-(1-Butylpiperidin-4-yl)-2-(3-fluorophenyl)pyrimidine-5-carboxamide]: 0.58 nM. To `Cc1ccccc1CN1CCC(NC(=O)c2cnc(-c3cccc(F)c3)nc2)CC1` [Example 62, 2-(3-Fluorophenyl)-N-[1-(2-methylbenzyl)piperidin-4-yl]pyrimidine-5-carboxamide] belongs 0.489 nM; to `O=C(NC1CCN(Cc2ccc(F)cc2)CC1)c1cnc(-c2cccc(F)c2)nc1` [Example 63, N-[1-(4-Fluorobenzyl)piperidin-4-yl]-2-(3-fluorophenyl)pyrimidine-5-carboxamide], 0.509 nM. Take `O=C(NC1CCN(Cc2ccccc2F)CC1)c1cnc(-c2cccc(F)c2)nc1` [Example 64, N-[1-(2-Fluorobenzyl)piperidin-4-yl]-2-(3-fluorophenyl)pyrimidine-5-carboxamide]: the IC50 turned out to be 0.16 nM. To `O=C(NC1CCN(Cc2cccc(F)c2)CC1)c1cnc(-c2cccc(F)c2)nc1` [Example 65, N-[1-(3-Fluorobenzyl)piperidin-4-yl]-2-(3-fluorophenyl)pyrimidine-5-carboxamide] belongs 0.335 nM. Next, `O=C(NC1CCN(CC2CCCC2)CC1)c1cnc(-c2cccc(F)c2)nc1` [Example 66, N-[1-(Cyclopentylmethyl)piperidin-4-yl]-2-(3-fluorophenyl)pyrimidine-5-carboxamide]: 0.355 nM; `O=C(NC1CCN(Cc2ccc(C(F)(F)F)cc2)CC1)c1cnc(-c2cccc(F)c2)nc1` [Example 67, 2-(3-Fluorophenyl)-N-{1-[4-(trifluoromethyl)benzyl]piperidin-4-yl}pyrimidine-5-carboxamide]: 30 nM. As for `CCC(CC)N1CCC(NC(=O)c2cnc(-c3cccc(F)c3)nc2)CC1` [Example 68, N-[1-(1-Ethylpropyl)piperidin-4-yl]-2-(3-fluorophenyl)pyrimidine-5-carboxamide], the IC50 stood at 0.373 nM.

Regarding `CCC(C)N1CCC(NC(=O)c2cnc(-c3cccc(F)c3)nc2)CC1` (centres unmarked) [Example 69, N-(1-sec-Butylpiperidin-4-yl)-2-(3-fluorophenyl)pyrimidine-5-carboxamide], the IC50 worked out at 3.59 nM. To `Cc1cc(=O)[nH]c(N2CCC(NC(=O)c3cnc(-c4cccc(F)c4)nc3)CC2)n1` [Example 70, 2-(3-Fluorophenyl)-N-[1-(4-methyl-6-oxo-1,6-dihydropyrimidin-2-yl)piperidin-4-yl]pyrimidine-5-carboxamide] belongs 0.962 nM; to `CC(C)(C)OC(=O)N1C[C@@H]2[C@H](C1)[C@H]2NC(=O)c1cnc(-c2cccc(F)c2)nc1` [Example 71, tert-Butyl (1R,5S,6s)-6-({[2-(3-fluorophenyl)pyrimidin-5-yl]carbonyl}amino)-3-azabicyclo[3.1.0]hexane-3-carboxylate], 0.355 nM.

`CN1CC[C@@H](NC(=O)c2cnc(-c3cccc(F)c3)nc2)[C@@H](Cc2ccccc2)C1` [Example 72, N-[(3S,4R)-3-Benzyl-1-methylpiperidin-4-yl]-2-(3-fluorophenyl)pyrimidine-5-carboxamide]: the IC50 worked out at 30 nM.

On to `O=C(NC1CCN(CC(F)(F)F)CC1)c1cnc(-c2cc(F)ccc2F)nc1` [Example 73, 2-(2,5-Difluorophenyl)-N-[1-(2,2,2-trifluoroethyl)piperidin-4-yl]pyrimidine-5-carboxamide], for which the IC50 amounted to 1.84 nM.

With `CCOC(=O)N1CCC(NC(=O)c2cnc(-c3cc(F)ccc3F)nc2)CC1` [Example 74, Ethyl 4-({[2-(2,5-difluorophenyl)pyrimidin-5-yl]carbonyl}amino)piperidine-1-carboxylate], the IC50 was 3.2 nM. Next, `O=C(NC1CCN(c2ccc(C(=O)N3CCOCC3)cn2)CC1)c1cnc(-c2cc(F)ccc2F)nc1` [Example 75, 2-(2,5-Difluorophenyl)-N-{1-[5-(morpholin-4-ylcarbonyl)pyridin-2-yl]piperidin-4-yl}pyrimidine-5-carboxamide]: 18.3 nM.

Consider `O=C(NC1CCN(c2ncc3c(n2)CCOC3)CC1)c1cnc(-c2cccc(F)c2)nc1` [Example 76, N-[1-(7,8-Dihydro-5H-pyrano[4,3-d]pyrimidin-2-yl)piperidin-4-yl]-2-(3-fluorophenyl)pyrimidine-5-carboxamide], for which the concentration for half-maximal inhibition (IC50) is 0.595 nM. To `CN1CCc2nc(N3CCC(NC(=O)c4cnc(-c5cccc(F)c5)nc4)C3)ncc2C1` (centres unmarked) [Example 78, 2-(3-Fluorophenyl)-N-[1-(6-methyl-5,6,7,8-tetrahydropyrido[4,3-d]pyrimidin-2-yl)pyrrolidin-3-yl]pyrimidine-5-carboxamide] belongs 0.379 nM; to `CN1CCc2nc(N3CC[C@@H](NC(=O)c4cnc(-c5cccc(F)c5)nc4)C3)ncc2C1` [Example 78a, 2-(3-Fluorophenyl)-N-[(3R)-1-(6-methyl-5,6,7,8-tetrahydropyrido[4,3-d]pyrimidin-2-yl)pyrrolidin-3-yl]pyrimidine-5-carboxamide], 13 nM; to `CN1CCc2nc(N3CC[C@H](NC(=O)c4cnc(-c5cccc(F)c5)nc4)C3)ncc2C1` [Example 78b, 2-(3-Fluorophenyl)-N-[(3S)-1-(6-methyl-5,6,7,8-tetrahydropyrido[4,3-d]pyrimidin-2-yl)pyrrolidin-3-yl]pyrimidine-5-carboxamide], 1 nM.

As to `O=C(N[C@@H]1CCN(Cc2ccccc2)C1)c1cnc(-c2cccc(F)c2)nc1` [Example 79, N-[(3R)-1-Benzylpyrrolidin-3-yl]-2-(3-fluorophenyl)pyrimidine-5-carboxamide], the 50% inhibitory concentration (IC50) turned out to be 0.346 nM.

With `Cc1nc(N2CCC(NC(=O)c3cnc(-c4cccc(F)c4)nc3)C2)ncc1S(C)(=O)=O` (centres unmarked) [Example 80, 2-(3-Fluorophenyl)-N-{1-[4-methyl-5-(methylsulfonyl)pyrimidin-2-yl]pyrrolidin-3-yl}pyrimidine-5-carboxamide], the IC50 is 0.211 nM. To `O=C(NC1CCN(c2ncc3c(n2)CCOC3)C1)c1cnc(-c2cccc(F)c2)nc1` (centres unmarked) [Example 81, N-[1-(7,8-Dihydro-5H-pyrano[4,3-d]pyrimidin-2-yl)pyrrolidin-3-yl]-2-(3-fluorophenyl)pyrimidine-5-carboxamide] belongs 0.219 nM. As to `CCOC(=O)N1CCC(NC(=O)c2cnc(-c3cccc(F)c3)nc2)C1` (centres unmarked) [Example 82, Ethyl 3-({[2-(3-fluorophenyl)pyrimidin-5-yl]carbonyl}amino)pyrrolidine-1-carboxylate], the IC50 amounted to 0.658 nM. Next, `O=C(NC1CCN(Cc2cccc(Cl)c2)C1=O)c1cnc(-c2cccc(F)c2)nc1` (centres unmarked) [Example 83, N-[1-(3-Chlorobenzyl)-2-oxopyrrolidin-3-yl]-2-(3-fluorophenyl)pyrimidine-5-carboxamide]: 1.18 nM.

Consider `O=C(NC1CCN(Cc2ccccc2C(F)(F)F)C1=O)c1cnc(-c2cccc(F)c2)nc1` (centres unmarked) [Example 84, 2-(3-Fluorophenyl)-N-{2-oxo-1-[2-(trifluoromethyl)benzyl]pyrrolidin-3-yl}pyrimidine-5-carboxamide], for which the concentration for half-maximal inhibition (IC50) worked out at 0.987 nM. Next, `O=C(NC1CCN(Cc2c(F)ccc(F)c2Cl)C1=O)c1cnc(-c2cccc(F)c2)nc1` (centres unmarked) [Example 85, N-[1-(2-Chloro-3,6-difluorobenzyl)-2-oxopyrrolidin-3-yl]-2-(3-fluorophenyl)pyrimidine-5-carboxamide]: 2.34 nM; `Cc1cc(CN2CCC(NC(=O)c3cnc(-c4cccc(F)c4)nc3)C2=O)ccc1F` (centres unmarked) [Example 86, N-[1-(4-Fluoro-3-methylbenzyl)-2-oxopyrrolidin-3-yl]-2-(3-fluorophenyl)pyrimidine-5-carboxamide]: 6.43 nM; `CC(C)N1CCC(NC(=O)c2cnc(-c3cccc(F)c3)nc2)C1` (centres unmarked) [Example 87, 2-(3-Fluorophenyl)-N-(1-isopropylpyrrolidin-3-yl)pyrimidine-5-carboxamide]: 6.57 nM.
